Molecular target: urease enzyme (Canavalia ensiformis, UniProt P07374)
Type: biochemical
Conditions: read-out: IC50 values (urease inhibition); indophenol method, pH 6.8, 30 °C, 15 min incubation, triplicate; thiourea as standard
Protocol: 25 µL of enzyme and 55 µL of buffer was added to 100 mM urea that were incubated with test scaffolds 5 µL (0.5 mM concentration) for 15 min at 30 °C in 96-well plates. Urea concentrations were changed from 2–24 mM to study kinetics. As described by Weatherburn the urease potential was assessed by measuring the ammonia production with using indophenol method. Concisely, 70 µL of alkali reagent (0.1% active chloride NaOCl and 0.5 w/v NaOH) and 45 µL of reagent phenol (0.005% w/v sodium nitroprusside and 1% w/v phenol) were added to each and every well plate. Using microplate reader (Molecular Device, USA) the increase in absorbance at 630 nm was measured after 50 min. Using 200 µL as final volume the reading was performed as triplicate. With help of SoftMaxPro software (Molecular Device, USA) the results (per min absorbance change) were calculated. At pH 6.8 the entire assay was performed. With the help of 100 − (ODtest well/ODcontrol) × 100 the percentage inhibition was calculated.

Chain of urease enzyme (P07374 whole entry, looked up): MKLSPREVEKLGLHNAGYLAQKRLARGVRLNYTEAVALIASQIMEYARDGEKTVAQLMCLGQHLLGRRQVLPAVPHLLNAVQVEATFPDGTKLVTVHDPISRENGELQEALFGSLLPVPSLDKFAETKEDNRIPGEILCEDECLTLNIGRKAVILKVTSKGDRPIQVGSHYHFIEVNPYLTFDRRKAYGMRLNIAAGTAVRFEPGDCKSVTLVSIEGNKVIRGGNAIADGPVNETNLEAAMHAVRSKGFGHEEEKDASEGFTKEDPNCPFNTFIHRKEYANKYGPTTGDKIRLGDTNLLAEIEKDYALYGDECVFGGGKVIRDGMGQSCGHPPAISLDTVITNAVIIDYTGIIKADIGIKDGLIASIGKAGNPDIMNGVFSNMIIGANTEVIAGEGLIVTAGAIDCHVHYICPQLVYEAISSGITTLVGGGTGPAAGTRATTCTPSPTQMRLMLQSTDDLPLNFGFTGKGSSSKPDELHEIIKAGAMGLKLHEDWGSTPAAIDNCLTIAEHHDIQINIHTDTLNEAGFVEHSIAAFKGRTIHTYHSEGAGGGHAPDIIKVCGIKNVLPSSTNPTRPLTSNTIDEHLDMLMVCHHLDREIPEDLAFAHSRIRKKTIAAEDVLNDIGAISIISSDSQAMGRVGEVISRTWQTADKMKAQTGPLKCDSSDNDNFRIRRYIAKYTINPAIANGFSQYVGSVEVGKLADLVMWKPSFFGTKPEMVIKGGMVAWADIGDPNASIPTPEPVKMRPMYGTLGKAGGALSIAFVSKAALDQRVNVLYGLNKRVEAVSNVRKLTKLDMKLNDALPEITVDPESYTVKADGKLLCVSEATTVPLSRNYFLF

## O=C(NN1C(=O)SCC1c1ccc(Cl)cc1Cl)c1cc2c(F)cc([N+](=O)[O-])cc2o1 (stereo not shown) [Compound 8, N-(4-(2,4-dichlorophenyl)-2-oxothiazolidin-3-yl)-4-fluoro-6-nitrobenzofuran-2-carboxamide]
  IC50: 2.9 ± 0.01 µM

From PMC7326984, “Synthesis, in vitro urease inhibitory potential and molecular docking study of benzofuran-based-thiazoldinone analogues” (Scientific Reports, 2020)
